Data on 1 compound can be found in patent US11717598B2, “Operating room coating applicator and method” (Ethicon, Inc., priority 2018, dated 2023).

One experiment deals with Staphylococcus aureus. Description: zone of inhibition test of triclosan-coated stainless steel coupon on agar plate. The settings on record: triclosan coating on 0.5" polished 316 stainless steel coupon; incubated at 38° C. for 24 hours; inoculum of 10^5 bacteria per cubic centimeter; 80 mm diameter plate. The experiment is classed as cell-based. From the text: A filter paper disk, or other object, impregnated with a particular antimicrobial agent is applied to an agar medium that is inoculated with the test organism. Where the anti-microbial agent diffuses through the medium, and as long as the concentration of the antimicrobial agent is above the MIC, none of the susceptible organism will grow on or around the disk for some distance. This distance is called a zone of inhibition. […] The diameter of the zone of inhibition is inversely proportional to the MIC.
A triclosan coating was applied to a 0.5″ polished 316 stainless steel coupon using the device described in FIGS. 1 and 2 according to the cycle described in FIG. 10. The stainless steel coupon was then incubated at 38° C. for 24 hours on an agar plate containing an initial Staphylococcus aureus inoculum of 10^5 bacteria per cubic centimeter of solution.

In another experiment the test system is S. aureus. The settings on record: measured in a suitable growth medium; Bhargava, H. et al, American Journal of Infection Control, June 1996; cited from earlier work.

As to `Oc1cc(Cl)ccc1Oc1ccc(Cl)cc1Cl` [triclosan, 2,4,4′-trichloro-2′-hydroxydiphenyl ether], in the experiment on Staphylococcus aureus, the zone of inhibition entry is “approximately 40 mm”. Besides, in the experiment on S. aureus, the “minimum inhibitory concentration (MIC) against S. aureus” value is reported as 0.01 ppm.
